Experimental data from the supplement of paper PMC11208160.

assay: recombinant barcode read abundance after kanamycin selection (control-corrected) (log10(CPM+1)); higher = more efficient recombination; sequences stand for … in AGTGCAGAGAAAATCGGCCAGTTTTCTCTGCCTGCAGTCCGCATGCCGT…AGATTTATGCAGCGGACTGCCTTTCTCCCAAAGTGATAAACCGGACAGTATCATGGACCGGTTTTCCCGGTAATCCGTATTTGCAAGGTTGGTTTCACT; site = the 11-nt target
Summary of the method: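 Recombination efficiency in this pooled E. coli screen uses counts per million of barcodes at recombinant junctions, averaged and corrected against the control. The reported form is log10(CPM+1). Two replicates were plated on chloramphenicol/ampicillin LB agar as control and two on chloramphenicol/ampicillin/kanamycin with 0.1 mM IPTG.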
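Also: IS621 recombinase and bridge RNA in Escherichia coli cells.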

In order of rising “recombinant barcode read abundance (log10)” value:
1. CTTCGTCCTTGGGTTCTAACCTGTTGCAT (site CTTCGTCCTAA)  0.0066
2. CTTGGACCTTGGGTTCTAACCTGTTGCAG (site CTTCGACCTAT)  0.00985
3. CTTAGGGCTTGGGTTCTAACCTGTTGCCT (site CTTTGTGCTAG)  0.012
4. CTTCGGGCTTGGGTTCTAACCTGTTGCAG (site CGTCGGGCTCT)  0.0132
5. CTTACTACTTGGGTTCTAACCTGTTGCCA (site TCCGGCGCTCC)  0.0182
6. CTGGAGACTTGGGTTCTAACCTGTTGCTT (site AGAACTCCTTC)  0.0253
7. CTGGCGTCTTGGGTTCTAACCTGTTGCCT (site CTGGGGTCTAG)  0.0321
8. CTTAACACTTGGGTTCTAACCTGTTGCCG (site TCATGACCTAT)  0.0383
9. CTGGTGTCTTGGGTTCTAACCTGTTGCCA (site CTGATGTCTTG)  0.0384
10. CTGGTGTCTTGGGTTCTAACCTGTTGCCA (site CTGCTGTCTTG)  0.0405
11. CTTCGCCCTTGGGTTCTAACCTGTTGCTT (site ACAGTGGCTCC)  0.0481
12. CTGTGCACTTGGGTTCTAACCTGTTGCCG (site ATGTGCACTCT)  0.053
13. CTGCTCCCTTGGGTTCTAACCTGTTGCGG (site CTGTTCCCTCC)  0.0581
14. CTTACTACTTGGGTTCTAACCTGTTGCCA (site CTTACTACTTG)  0.0598
15. CTTCGACCTTGGGTTCTAACCTGTTGCAT (site CTTGGACCTCT)  0.0729
16. CTGGCGTCTTGGGTTCTAACCTGTTGCCT (site CTGGTGTCTAG)  0.0782
17. CTGGCCACTTGGGTTCTAACCTGTTGCCT (site CGGGCCACTAG)  0.0825
18. CTGGCCACTTGGGTTCTAACCTGTTGCCT (site CCGGCCACTAG)  0.0832
19. CTTGAATCTTGGGTTCTAACCTGTTGCCT (site CTTCAATCTAG)  0.0867
20. CTGTGAGCTTGGGTTCTAACCTGTTGCAG (site AACAATACTAG)  0.107
21. CTTCGCCCTTGGGTTCTAACCTGTTGCTT (site CTTCGCCCTAA)  0.109
22. CTGGCCACTTGGGTTCTAACCTGTTGCCT (site CAGGCCACTAG)  0.115
23. CTTGAATCTTGGGTTCTAACCTGTTGCCT (site CTTAAATCTAG)  0.117
24. CTGCTCCCTTGGGTTCTAACCTGTTGCGG (site CTGATCCCTCC)  0.124
25. CTGCAGTCTTGGGTTCTAACCTGTTGCCA (site TGCATAGCTCT)  0.126
26. CTGTACTCTTGGGTTCTAACCTGTTGCCT (site CTGCACTCTTG)  0.126
27. CTTCGTCCTTGGGTTCTAACCTGTTGCAT (site CTTCGTCCTAC)  0.133
28. CTTCGTCCTTGGGTTCTAACCTGTTGCAT (site CTTCGTCCTAG)  0.139
29. CTGGGAACTTGGGTTCTAACCTGTTGCAG (site CTCGGAACTAT)  0.149
30. CTTCGAGCTTGGGTTCTAACCTGTTGCAG (site CTTCGAGCTCG)  0.168
31. CTTCGAGCTTGGGTTCTAACCTGTTGCAG (site CTTCGAGCTCA)  0.172
32. CTGGGGTCTTGGGTTCTAACCTGTTGCCT (site CTGGTGTCTAG)  0.173
33. CTGCAGTCTTGGGTTCTAACCTGTTGCCA (site CTGCAGTCTTG)  0.18
34. CTTACTGCTTGGGTTCTAACCTGTTGCCT (site CTTACTGCTAG)  0.183
35. CTGTGCACTTGGGTTCTAACCTGTTGCCG (site CTGTGCACTCG)  0.197
36. CTTCAAGCTTGGGTTCTAACCTGTTGCCT (site CTGCAAGCTAG)  0.197
37. CTGTGTCCTTGGGTTCTAACCTGTTGCGG (site TCAGCCTCTAG)  0.214
38. CTTGGACCTTGGGTTCTAACCTGTTGCCT (site CTTGGAACTAG)  0.222
39. CTTCGGACTTGGGTTCTAACCTGTTGCAA (site CTTCGGGCTTT)  0.223
40. CTTGAGACTTGGGTTCTAACCTGTTGCCT (site CTTCAGGCTAG)  0.256
41. CTTCAAGCTTGGGTTCTAACCTGTTGCCT (site CTCCAAGCTAG)  0.257
42. CTGGCGTCTTGGGTTCTAACCTGTTGCCT (site CTGGAGTCTAG)  0.263
43. CTGCACTCTTGGGTTCTAACCTGTTGCCA (site CTGTACTCTAG)  0.28
44. CTTCGAGCTTGGGTTCTAACCTGTTGCAG (site CTTCGAGCTCC)  0.288
45. CTTACTGCTTGGGTTCTAACCTGTTGCCT (site CTTACCGCTAG)  0.291
46. CTTACTGCTTGGGTTCTAACCTGTTGCCT (site CTTACGGCTAG)  0.295
47. CTGCTCCCTTGGGTTCTAACCTGTTGCGG (site CTGGTCCCTCC)  0.306
48. CTTGAATCTTGGGTTCTAACCTGTTGCCT (site CTTTAATCTAG)  0.337
49. CTTACGACTTGGGTTCTAACCTGTTGCCT (site GTTACAACTAG)  0.355
50. CTGCTCCCTTGGGTTCTAACCTGTTGCGG (site CTGCTCCCTCC)  0.36
51. CTGGGGTCTTGGGTTCTAACCTGTTGCCT (site CTGGCGTCTAG)  0.36
52. CTGCAGACTTGGGTTCTAACCTGTTGCCG (site CTCCAGACTCT)  0.37
53. CTTGAATCTTGGGTTCTAACCTGTTGCCT (site CTTGAATCTAG)  0.379
54. CTTCGAACTTGGGTTCTAACCTGTTGCAT (site CTTCGAACTAT)  0.407
55. CTGCAGACTTGGGTTCTAACCTGTTGCCG (site CTGCAGACTCG)  0.41
56. CTTAGGGCTTGGGTTCTAACCTGTTGCCT (site CTTAGGGCTAG)  0.419
57. CTGGTGTCTTGGGTTCTAACCTGTTGCCA (site CTGTTGTCTTG)  0.434
58. CTTCGAACTTGGGTTCTAACCTGTTGCAT (site ACATACCCTCA)  0.609
59. CTTCGTCCTTGGGTTCTAACCTGTTGCAT (site CTTCGTCCTAT)  0.658
60. CTTAACACTTGGGTTCTAACCTGTTGCCG (site CTTAACACTCG)  0.683
61. CTTACGACTTGGGTTCTAACCTGTTGCCT (site CTTACGACTAG)  0.695
62. CTGGCCACTTGGGTTCTAACCTGTTGCCT (site CTGGCCACTAG)  0.766
63. CTTACTGCTTGGGTTCTAACCTGTTGCCT (site CTTACAGCTAG)  0.775
64. CTGGGAACTTGGGTTCTAACCTGTTGCAG (site CTGGGAACTCT)  0.836
65. CTGCACTCTTGGGTTCTAACCTGTTGCCA (site CTGCACTCTTG)  0.842
66. CTGGGGTCTTGGGTTCTAACCTGTTGCCT (site CTGGAGTCTAG)  0.858
67. CTTCAAGCTTGGGTTCTAACCTGTTGCCT (site CTTCAAGCTAG)  0.983
68. CTGGCGTCTTGGGTTCTAACCTGTTGCCT (site CTGGCGTCTAG)  1.1
69. CTGGTGTCTTGGGTTCTAACCTGTTGCCA (site CTGGTGTCTTG)  1.12
70. CTTCAAGCTTGGGTTCTAACCTGTTGCCT (site CTACAAGCTAG)  1.17
71. CTTCGGGCTTGGGTTCTAACCTGTTGCAG (site CATCGGGCTCT)  1.25
72. CTGTACTCTTGGGTTCTAACCTGTTGCCT (site CTGTACTCTAG)  1.3
73. CTTCGGGCTTGGGTTCTAACCTGTTGCAG (site CCTCGGGCTCT)  1.3
74. CTTCGAGCTTGGGTTCTAACCTGTTGCAG (site CTTCGAGCTCT)  1.35
75. CTGTGAGCTTGGGTTCTAACCTGTTGCAG (site CTGTGAGCTCT)  1.47
76. CTTCGGACTTGGGTTCTAACCTGTTGCAA (site CTTCGGACTTT)  1.62
77. CTTGGACCTTGGGTTCTAACCTGTTGCCT (site CTTGGACCTAG)  1.74
78. CTGTGTCCTTGGGTTCTAACCTGTTGCGG (site CTGTGTCCTCC)  1.84
79. CTGGAGACTTGGGTTCTAACCTGTTGCTT (site CTGGAGACTAA)  1.93
80. CTTCGGGCTTGGGTTCTAACCTGTTGCAG (site CTTCGGGCTCT)  1.96
81. CTTGAGACTTGGGTTCTAACCTGTTGCCT (site CTTGAGACTAG)  2.02
82. CTTCGACCTTGGGTTCTAACCTGTTGCAT (site CTTCGACCTAT)  2.04
83. CTTAGGGCTTGGGTTCTAACCTGTTGCGG (site CTAAGGGCTCC)  2.14
84. CTGGGGTCTTGGGTTCTAACCTGTTGCCT (site CTGGGGTCTAG)  2.45
85. CTTGGACCTTGGGTTCTAACCTGTTGCAG (site CTTGGACCTCT)  2.55
86. CTTAGGGCTTGGGTTCTAACCTGTTGCGG (site CTTAGGGCTCC)  3.02
